Laboratory results published in patent US11407740B2 (priority 2018, dated 2022).
In brackets after ≈: the same amount, converted by molar mass.

tested on: K. pneumoniae; experiment: Bacterial susceptibility testing, MIC by broth microdilution (CLSI); type: cell-based; conditions: 35° C., 18-24 h
Method: (§1) Minimal inhibitory concentrations (MIC) were determined by the broth microdilution method in accordance with the Clinical and Laboratory Standards Institute (CLSI) guidelines. In brief, organism suspensions were adjusted to a 0.5 McFarland standard to yield a final inoculum between 3×10^3 and 7×10^5 colony-forming units (CFU)/mL. Drug dilutions and inocula were made in sterile, cation adjusted Mueller-Hinton Broth (Beckton Dickinson). An inoculum volume of 100 μL was added to wells containing 100 μL of broth with 2-fold serial dilutions of drug.

`O=c1[nH]cnc(CC(CO)c2ccc(C#Cc3ccc(CN4CCNCC4)cc3)cc2)c1O` (stereo not drawn) [Compound 54] was tested, and the “K. pneumoniae MIC” value was “B (B: >1 μg/mL to ≤8.0 μg/mL)”.
In the case of `O=c1[nH]cnc(CC(CO)c2ccc(C#Cc3ccc(CN4CCNCC4)cc3)cc2)c1O` (stereo not drawn) [Compound 55], the “K. pneumoniae MIC” value is reported as “D (D: >32 μg/mL)”.

tested on: E. coli; experiment: as above; conditions: Escherichia coli, read-out: E. coli MIC, broth microdilution, 35° C., 18-24 h
Method: as §1

`O=c1[nH]cnc(CC(CO)c2ccc(C#Cc3ccc(CN4CCNCC4)cc3)cc2)c1O` (stereo not drawn) [Compound 54] and `O=c1[nH]cnc(CC(CO)c2ccc(C#Cc3ccc(CNC4CCNCC4)cc3)cc2)c1O` (stereo not drawn) [Compound 259] fall in the same range of MIC: 1 to 8 µg/mL (≈ 2.25 to 18 µM) for the first, 1 to 8 µg/mL (≈ 2.18 to 17.4 µM) for the second.

`COC(=O)C(Cc1nc[nH]c(=O)c1O)N1Cc2cc(C#Cc3ccc(CN4CCOCC4)cc3)cn2C1=O` (stereo not drawn) [Compound 192] and `O=C1N(C(CO)Cc2nc[nH]c(=O)c2O)Cc2cc(C#Cc3ccc(CN4CCOCC4)cc3)cn21` (stereo not drawn) [Compound 193] fall in the same range of MIC: 1 to 8 µg/mL (≈ 1.93 to 15.5 µM) for the first, 1 to 8 µg/mL (≈ 2.04 to 16.3 µM) for the second.

`O=c1[nH]cnc(CC(CO)c2ccc(C#Cc3cnn(CC4CCOCC4)c3)cc2)c1O` (stereo not drawn) [Compound 194] and `O=c1[nH]cnc(CC(CNCCF)c2ccc(C#Cc3cnn(CC4CCOCC4)c3)cc2)c1O` (stereo not drawn) [Compound 206] fall in the same range of MIC: 1 to 8 µg/mL (≈ 2.3 to 18.4 µM) for the first, 1 to 8 µg/mL (≈ 2.09 to 16.7 µM) for the second.

`O=c1[nH]cnc(CC(CO)c2ccc(C#Cc3ccc(CN4CCOCC4)nc3)cc2)c1O` (stereo not drawn) [Compound 195] and `O=c1[nH]cnc(CC(CO)c2ccc(C#Cc3ccc(CN4CCOCC4)cc3)cn2)c1O` (stereo not drawn) [Compound 196] fall in the same range of MIC: 1 to 8 µg/mL (≈ 2.24 to 17.9 µM) for the first, 1 to 8 µg/mL (≈ 2.24 to 17.9 µM) for the second.

Compared with `Cn1cc(C#Cc2ccc(C(CO)Cc3nc[nH]c(=O)c3O)cc2)cn1` (stereo not drawn) [Compound 197], `Cn1cc(C#Cc2ccc(C(N)Cc3nc[nH]c(=O)c3O)cc2)cn1` (stereo not drawn) [Compound 200] is lower in MIC: 8 to 32 µg/mL (≈ 22.8 to 91.3 µM) for the first, 1 to 8 µg/mL (≈ 2.98 to 23.9 µM) for the second.

`Cn1cc(C#Cc2ccc(C(CNCCF)Cc3nc[nH]c(=O)c3O)cc2)cn1` (stereo not drawn) [Compound 199] and `O=c1[nH]cnc(CC(CNCCF)c2ccc(C#Cc3cnn(C4COC4)c3)cc2)c1O` (stereo not drawn) [Compound 208] fall in the same range of MIC: 1 to 8 µg/mL (≈ 2.53 to 20.2 µM) for the first, 1 to 8 µg/mL (≈ 2.29 to 18.3 µM) for the second.

`O=c1[nH]cnc(CC(CO)c2ccc(C#Cc3cnn(C4CCOCC4)c3)cc2)c1O` (stereo not drawn) [Compound 202] and `O=c1[nH]cnc(CC(CNCCF)c2ccc(C#Cc3cnn(C4CCOCC4)c3)cc2)c1O` (stereo not drawn) [Compound 205] fall in the same range of MIC: 1 to 8 µg/mL (≈ 2.38 to 19 µM) for the first, 1 to 8 µg/mL (≈ 2.15 to 17.2 µM) for the second.

First: O=C1N(C(CO)Cc2nc[nH]c(=O)c2O)Cc2cc(-c3ccc(CCN4CCOCC4)cc3)cn21 (stereo not drawn) [Compound 203]
Second: O=C(O)C(Cc1nc[nH]c(=O)c1O)N1Cc2cc(-c3ccc(CCN4CCOCC4)cc3)cn2C1=O (stereo not drawn) [Compound 212]
The MIC of the first is lower: 1 to 8 µg/mL (≈ 2.09 to 16.7 µM) for the first, > 32 µg/mL for the second.

First: O=c1[nH]cnc(C[C@H](CO)c2ccc(C#C[C@H]3CC[C@H](CN4CCOCC4)CC3)cc2)c1O [Compound 204]
Second: NCC(=O)N1CCC(C#Cc2ccc(C(CO)Cc3nc[nH]c(=O)c3O)cc2)CC1 (stereo not drawn) [Compound 263]
The MIC of the first is lower: 8 to 32 µg/mL (≈ 17.7 to 70.9 µM) for the first, > 32 µg/mL for the second.

First: O=c1[nH]cnc(CC(CNCCF)c2ccc(C#Cc3ccn4cncc4c3)cc2)c1O (stereo not drawn) [Compound 207]
Second: COC1CN(Cc2ccc(C#Cc3ccc(C(CNC(C)(C)CF)Cc4nc[nH]c(=O)c4O)cc3)cc2)C1 (stereo not drawn) [Compound 221]
The MIC of the first is higher: 1 to 8 µg/mL (≈ 2.32 to 18.5 µM) for the first, < 1 µg/mL for the second.

`O=c1[nH]cnc(CC2CCc3cc(C#Cc4ccc(CN5CCOCC5)cc4)ccc32)c1O` (stereo not drawn) [Compound 209] and `O=C1NC(Cc2nc[nH]c(=O)c2O)c2ccc(C#Cc3ccc(CN4CCOCC4)cc3)cc21` (stereo not drawn) [Compound 210] fall in the same range of MIC: 1 to 8 µg/mL (≈ 2.26 to 18.1 µM) for the first, 1 to 8 µg/mL (≈ 2.19 to 17.5 µM) for the second.

First: O=c1[nH]cnc(CC(CO)n2ccc(C#Cc3ccc(CN4CCOCC4)cc3)cc2=O)c1O (stereo not drawn) [Compound 211]
Second: O=c1[nH]cnc(CC(CN2CC(O)C2)c2ccc(C#Cc3ccc(CN4CCOCC4)cc3)cc2F)c1O (stereo not drawn) [Compound 231]
The MIC of the first is higher: 8 to 32 µg/mL (≈ 17.3 to 69.2 µM) for the first, < 1 µg/mL for the second.

First: NC(Cc1nc[nH]c(=O)c1O)c1ccc(-c2ccc(CCN3CCOCC3)cc2)cc1 (stereo not drawn) [Compound 214]
Second: CS(=O)(=O)NC(Cc1nc[nH]c(=O)c1O)c1ccc(C#Cc2ccc(CN3CCOCC3)cc2)cc1 (stereo not drawn) [Compound 289]
The MIC of the first is higher: 8 to 32 µg/mL (≈ 19 to 76.1 µM) for the first, < 1 µg/mL for the second.

`COC1CN(Cc2ccc(C#Cc3ccc(C(CNC4CC4)Cc4nc[nH]c(=O)c4O)cc3)cc2)C1` (stereo not drawn) [Compound 223] and `COC1CN(Cc2ccc(C#Cc3ccc(C(CNC4CC4)Cc4nc[nH]c(=O)c4O)c(F)c3)cc2)C1` (stereo not drawn) [Compound 225] cannot be ordered by MIC: < 1 µg/mL for the first, < 1 µg/mL for the second.

First: O=C(CO)NC1CCN(Cc2ccc(C#Cc3ccc(C(CO)Cc4nc[nH]c(=O)c4O)cc3)cc2)CC1 (stereo not drawn) [Compound 240]
Second: NCC1CN(Cc2ccc(C#Cc3ccc(C(CO)Cc4nc[nH]c(=O)c4O)cc3)cc2)CCO1 (stereo not drawn) [Compound 258]
The MIC of the first is lower: < 1 µg/mL for the first, 1 to 8 µg/mL (≈ 2.11 to 16.9 µM) for the second.

`COC1CN(Cc2ccc(C#Cc3ccc(C(CNC(CO)CF)Cc4nc[nH]c(=O)c4O)cc3)cc2)C1` (stereo not drawn) [Compound 244] and `COC1CN(Cc2ccc(C#Cc3ccc(C(CNCC(F)CO)Cc4nc[nH]c(=O)c4O)cc3)cc2)C1` (stereo not drawn) [Compound 249] fall in the same range of MIC: 1 to 8 µg/mL (≈ 1.92 to 15.4 µM) for the first, 1 to 8 µg/mL (≈ 1.92 to 15.4 µM) for the second.

Compared with `O=C(CO)N1CCC(C#Cc2ccc(C(CO)Cc3nc[nH]c(=O)c3O)cc2)CC1` (stereo not drawn) [Compound 264], `CC(C)(CF)NCC(Cc1nc[nH]c(=O)c1O)c1ccc(C#Cc2ccc(CN3CCOCC3)cc2)cc1` (stereo not drawn) [Compound 301] is lower in MIC: > 32 µg/mL for the first, < 1 µg/mL for the second.

`CS(=O)(=O)N[C@H](Cc1nc[nH]c(=O)c1O)c1ccc(C#Cc2ccc(CN3CCNC[C@H]3CO)cc2)cc1` [Compound 291] and `Cc1nccn1CC(Cc1nc[nH]c(=O)c1O)c1ccc(C#Cc2ccc(CN3CCOCC3)cc2)cc1` (stereo not drawn) [Compound 305] cannot be ordered by MIC: < 1 µg/mL for the first, < 1 µg/mL for the second.

same assay, conditions: broth microdilution, 35° C., 18-24 h

For `O=c1[nH]cnc(CC(CO)c2ccc(C#Cc3ccc(CN4CCNCC4)cc3)cc2)c1O` (stereo not drawn) [Compound 55], the “E. coli MIC” value was “B (B: >1 μg/mL to ≤8.0 μg/mL)”.
With `COC1CN(Cc2ccc(C#Cc3ccc(C(CNC4CC4)Cc4nc[nH]c(=O)c4O)cc3)cc2)C1` (stereo not drawn) [Compound 224] the “E. coli MIC” value was “B (B: >1 μg/mL to ≤8.0 μg/mL)”.
With `O=C(CO)NC1CCN(Cc2ccc(C#Cc3ccc(C(CO)Cc4nc[nH]c(=O)c4O)cc3)cc2)CC1` (stereo not drawn) [Compound 241] the “E. coli MIC” value was “B (B: >1 μg/mL to ≤8.0 μg/mL)”.
For `O=C(CO)NC1CCN(Cc2ccc(C#Cc3ccc(C(CO)Cc4nc[nH]c(=O)c4O)cc3)cc2)CC1` (stereo not drawn) [Compound 242], the “E. coli MIC” value was “A (A: ≤1 μg/mL)”.
